This passage reports EC50 results from patent US9587005B2 (priority 2010, dated 2017).

*1 amine or outer side, *2 acyl side, *3 side chain or, on linkers, in order; H or OH if unused. Where a SMILES comes first, the peptide text is derived from it. Bridges are numbered along the chain shown (N, C = ends). Where no end group is shown, it is not given here. Side-chain parts run from the residue outwards. [ ]: non-standard residue; d: D form. The star is where a group is joined. Phe(4-NH2) = Nc1ccc(C[C@H](N)C(=O)O)cc1; γGlu = O=C(O)[C@H](CCC(=O)[*:2])N[*:1]; Palmitoyl = CCCCCCCCCCCCCCCC(=O)*; Aib = CC(C)(N)C(=O)O

Experiment [1] addresses T1, GLP-1 receptor (Homo sapiens, UniProt P43220).
T1 construct: expressed in transfected cells; host or cells: HEK293
The experiment can be described thus: cAMP induction, firefly luciferase reporter assay in HEK293 cells co-transfected with GLP-1 receptor. Format: cell-based. The source says:
This example describes an exemplary method of testing the biological activity of the peptides of the present disclosures, which method involves assaying cAMP synthesis.
Background: A reporter such as luciferase makes a cellular process visible.

Experiment [2] deals with T2, GIP receptor (Homo sapiens, UniProt P48546).
T2 sequence (P48546 22-466): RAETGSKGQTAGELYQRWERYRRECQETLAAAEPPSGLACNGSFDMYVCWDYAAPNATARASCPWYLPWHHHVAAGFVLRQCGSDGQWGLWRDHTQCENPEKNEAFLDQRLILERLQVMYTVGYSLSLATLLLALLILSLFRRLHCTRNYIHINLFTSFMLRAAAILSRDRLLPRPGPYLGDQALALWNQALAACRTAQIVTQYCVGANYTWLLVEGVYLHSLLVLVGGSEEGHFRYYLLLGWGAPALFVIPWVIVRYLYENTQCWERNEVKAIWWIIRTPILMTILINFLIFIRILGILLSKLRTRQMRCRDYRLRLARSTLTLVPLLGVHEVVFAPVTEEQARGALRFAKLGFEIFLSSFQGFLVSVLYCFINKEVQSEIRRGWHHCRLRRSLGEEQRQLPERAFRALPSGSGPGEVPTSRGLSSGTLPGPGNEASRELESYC
The experiment can be described thus: cAMP induction, firefly luciferase reporter assay in HEK293 cells co-transfected with GIP receptor. Format: cell-based.

Setting [3] is: EC50 (nM) at GLP-1 Receptor, Table 6, Example 12.
Where [4] appears, read: EC50 (nM) at GIP Receptor, Table 6, Example 12.
Where [5] appears, read: EC50 (nM) at GLP-1 Receptor, Table 9, Example 15.
Where [6] appears, read: EC50 (nM) at GIP Receptor, Table 9, Example 15.

What is called EC50 is the concentration needed to bring the measured effect to its halfway point.

T1 sequence (P43220 24-463): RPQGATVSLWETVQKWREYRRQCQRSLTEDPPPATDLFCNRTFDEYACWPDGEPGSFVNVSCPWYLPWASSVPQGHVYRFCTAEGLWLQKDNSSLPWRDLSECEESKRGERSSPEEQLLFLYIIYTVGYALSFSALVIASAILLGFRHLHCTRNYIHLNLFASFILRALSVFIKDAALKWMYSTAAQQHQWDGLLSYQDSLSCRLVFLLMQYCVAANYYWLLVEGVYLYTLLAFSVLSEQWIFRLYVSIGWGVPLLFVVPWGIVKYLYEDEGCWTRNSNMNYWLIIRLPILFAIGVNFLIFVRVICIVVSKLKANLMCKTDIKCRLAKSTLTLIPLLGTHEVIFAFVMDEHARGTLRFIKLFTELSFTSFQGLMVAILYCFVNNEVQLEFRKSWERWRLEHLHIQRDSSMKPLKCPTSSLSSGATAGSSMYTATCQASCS

Regarding “H[Aib]EGTFTSDYSKYLDERAAQDFVQWLLDGGPSSGAPPPSK([γGlu-γGlu-Palmitoyl])G-NH2 [SEQ ID NO: 171]”, the EC50 worked out at 0.005 nM in experiment [1] (EC50 (nM) at GLP-1 receptor, Table 15, Example 23) and 0.038 nM in experiment [2] (EC50 (nM) at GIP receptor, Table 15, Example 23).

For the molecule `CCCCCCCCCCCCCCCC(=O)N[C@@H](CCC(=O)N[C@@H](CCC(=O)NCCCC[C@H](NC(=O)[C@H](CC(=O)O)NC(=O)[C@H](CO)NC(=O)[C@@H](NC(=O)[C@H](Cc1ccccc1)NC(=O)[C@@H](NC(=O)CNC(=O)[C@H](CCC(N)=O)NC(=O)C(C)(C)NC(=O)[C@@H](N)Cc1ccc(O)cc1)[C@@H](C)O)[C@@H](C)O)C(=O)N[C@@H](CO)C(=O)N[C@H](C(=O)N[C@@H](Cc1ccc(O)cc1)C(=O)N[C@@H](CC(C)C)C(=O)N[C@@H](CC(=O)O)C(=O)N[C@@H](CCCCN)C(=O)N[C@@H](CCC(N)=O)C(=O)N[C@@H](C)C(=O)N[C@@H](C)C(=O)NC(C)(C)C(=O)N[C@@H](CCC(=O)O)C(=O)N[C@@H](Cc1ccccc1)C(=O)N[C@H](C(=O)N[C@@H](CC(N)=O)C(=O)N[C@@H](Cc1c[nH]c2ccccc12)C(=O)N[C@@H](CC(C)C)C(=O)N[C@@H](CC(C)C)C(=O)N[C@@H](CC(=O)O)C(=O)N[C@H](C(N)=O)[C@@H](C)O)C(C)C)[C@@H](C)CC)C(=O)O)C(=O)O` [compound 92] (H-Y[Aib]QGTFTSDK([γGlu-γGlu-Palmitoyl])SIYLDKQAA[Aib]EFVNWLLDT-NH2; N-terminus assumed), the EC50 in experiment [1] (EC50 (nM) at GLP-1 Receptor, Table 7, Example 13) turned out to be 0.0031 nM; in experiment [2] (EC50 (nM) at GIP Receptor, Table 7, Example 13), 0.021 nM.

For `CC[C@H](C)[C@H](NC(=O)[C@H](CO)NC(=O)[C@H](Cc1ccc(O)cc1)NC(=O)[C@H](CC(=O)O)NC(=O)[C@H](CO)NC(=O)[C@@H](NC(=O)[C@H](Cc1ccccc1)NC(=O)[C@@H](NC(=O)CNC(=O)[C@H](CCC(N)=O)NC(=O)C(C)(C)NC(=O)[C@@H](N)Cc1ccc(O)cc1)[C@@H](C)O)[C@@H](C)O)C(=O)N[C@@H](Cc1ccc(O)cc1)C(=O)N[C@@H](CC(C)C)C(=O)N[C@@H](CC(=O)O)C(=O)N[C@@H](CCCCN)C(=O)N[C@H]1CCC(=O)NCCCC[C@@H](C(=O)N[C@@H](Cc2ccccc2)C(=O)N[C@H](C(=O)N[C@@H](CC(N)=O)C(=O)N[C@@H](Cc2c[nH]c3ccccc23)C(=O)N[C@@H](CC(C)C)C(=O)N[C@@H](CC(C)C)C(=O)N[C@@H](C)C(=O)NCC(=O)NCC(=O)N2CCC[C@H]2C(=O)N[C@@H](CO)C(=O)N[C@@H](CO)C(=O)NCC(=O)N[C@@H](C)C(=O)N2CCC[C@H]2C(=O)N2CCC[C@H]2C(=O)N2CCC[C@H]2C(=O)N[C@@H](CO)C(=O)N[C@@H](CS)C(N)=O)C(C)C)NC(=O)C(C)(C)NC(=O)[C@H](C)NC(=O)[C@H](C)NC1=O` [compound 58] (H-Y[Aib]QGTFTSDYSIYLDKEAA[Aib]KFVNWLLAGGPSSGAPPPSC-NH2; lactam 17-21), the results for the EC50 in experiment [1] (setting [3]) and in experiment [2] (setting [4]) were 0.014 nM and 0.005 nM, respectively.

As to `CCCCCCCCCCCCCCCCCCC(CC(=O)NCCCC[C@H](NC(=O)[C@H](CO)NC(=O)[C@@H]1CCCN1C(=O)[C@@H]1CCCN1C(=O)[C@@H]1CCCN1C(=O)[C@H](C)NC(=O)CNC(=O)[C@H](CO)NC(=O)[C@H](CO)NC(=O)[C@@H]1CCCN1C(=O)CNC(=O)CNC(=O)[C@H](C)NC(=O)[C@H](CC(C)C)NC(=O)[C@H](CC(C)C)NC(=O)[C@H](Cc1c[nH]c2ccccc12)NC(=O)[C@H](CC(N)=O)NC(=O)[C@@H](NC(=O)[C@H](Cc1ccccc1)NC(=O)[C@H](CCC(=O)O)NC(=O)C(C)(C)NC(=O)[C@H](C)NC(=O)[C@H](C)NC(=O)[C@H](CCC(N)=O)NC(=O)[C@H](CCCCN)NC(=O)[C@H](CC(=O)O)NC(=O)[C@H](CC(C)C)NC(=O)[C@H](Cc1ccc(O)cc1)NC(=O)[C@@H](NC(=O)[C@H](CO)NC(=O)[C@H](Cc1ccc(O)cc1)NC(=O)[C@H](CC(=O)O)NC(=O)[C@H](CO)NC(=O)[C@@H](NC(=O)[C@H](Cc1ccccc1)NC(=O)[C@@H](NC(=O)CNC(=O)[C@H](CCC(=O)O)NC(=O)C(C)(C)NC(=O)[C@@H](N)Cc1ccc(O)cc1)[C@@H](C)O)[C@@H](C)O)[C@@H](C)CC)C(C)C)C(=O)NCC(N)=O)C(=O)O` (some centres unmarked) [SEQ ID NO: 142], the concentration for a half-maximal effect (EC50) in experiment [1] (setting [5]) was found to be 0.004 nM; in experiment [2] (setting [6]), 0.001 nM.

`CC[C@H](C)[C@H](NC(=O)[C@H](CO)NC(=O)[C@H](Cc1ccc(O)cc1)NC(=O)[C@H](CC(=O)O)NC(=O)[C@H](CO)NC(=O)[C@@H](NC(=O)[C@H](Cc1ccccc1)NC(=O)[C@@H](NC(=O)CNC(=O)[C@H](CCC(N)=O)NC(=O)C(C)(C)NC(=O)[C@@H](N)Cc1c[nH]cn1)[C@@H](C)O)[C@@H](C)O)C(=O)N[C@@H](Cc1ccc(O)cc1)C(=O)N[C@@H](CC(C)C)C(=O)N[C@@H](CC(=O)O)C(=O)N[C@@H](CCCCN)C(=O)N[C@@H](CCC(N)=O)C(=O)N[C@@H](C)C(=O)N[C@@H](C)C(=O)NC(C)(C)C(=O)N[C@@H](CCC(=O)O)C(=O)N[C@@H](Cc1ccccc1)C(=O)N[C@H](C(=O)N[C@@H](CC(N)=O)C(=O)N[C@@H](Cc1c[nH]c2ccccc12)C(=O)N[C@@H](CC(C)C)C(=O)N[C@@H](CC(C)C)C(=O)N[C@@H](C)C(=O)NCC(=O)NCC(=O)N1CCC[C@H]1C(=O)N[C@@H](CO)C(=O)N[C@@H](CO)C(=O)NCC(=O)N[C@@H](C)C(=O)N1CCC[C@H]1C(=O)N1CCC[C@H]1C(=O)N1CCC[C@H]1C(=O)N[C@@H](CO)C(=O)N[C@@H](CS)C(N)=O)C(C)C` [compound 52] (H-H[Aib]QGTFTSDYSIYLDKQAA[Aib]EFVNWLLAGGPSSGAPPPSC-NH2): the EC50 in experiment [1] (setting [3]) is 0.005 nM; in experiment [2] (setting [4]) it was 0.006 nM.

In the case of `CCCCCCCCCCCCCCCC(=O)N[C@@H](CCC(=O)N[C@@H](CCC(=O)Nc1ccc(C[C@H](NC(=O)[C@H](CC(=O)O)NC(=O)[C@H](CO)NC(=O)[C@@H](NC(=O)[C@H](Cc2ccccc2)NC(=O)[C@@H](NC(=O)CNC(=O)[C@H](CCC(=O)O)NC(=O)C(C)(C)NC(=O)[C@@H](N)Cc2ccc(O)cc2)[C@@H](C)O)[C@@H](C)O)C(=O)N[C@@H](CO)C(=O)N[C@H](C(=O)N[C@@H](Cc2ccc(O)cc2)C(=O)N[C@@H](CC(C)C)C(=O)N[C@@H](CC(=O)O)C(=O)N[C@@H](CCCCN)C(=O)N[C@@H](CCC(N)=O)C(=O)N[C@@H](C)C(=O)N[C@@H](C)C(=O)NC(C)(C)C(=O)N[C@@H](CCC(=O)O)C(=O)N[C@@H](Cc2ccccc2)C(=O)N[C@H](C(=O)N[C@@H](CC(N)=O)C(=O)N[C@@H](Cc2c[nH]c3ccccc23)C(=O)N[C@@H](CC(C)C)C(=O)N[C@@H](CC(C)C)C(=O)N[C@@H](C)C(=O)NCC(=O)NCC(=O)N2CCC[C@H]2C(=O)N[C@@H](CO)C(=O)N[C@@H](CO)C(=O)NCC(=O)N[C@@H](C)C(=O)N2CCC[C@H]2C(=O)N2CCC[C@H]2C(=O)N2CCC[C@H]2C(=O)N[C@@H](CO)C(N)=O)C(C)C)[C@@H](C)CC)cc1)C(=O)O)C(=O)O` [SEQ ID NO: 143] (H-Y[Aib]EGTFTSD[Phe(4-NH2)]([γGlu-γGlu-Palmitoyl])SIYLDKQAA[Aib]EFVNWLLAGGPSSGAPPPS-NH2; N-terminus assumed), the half-maximal effective concentration (EC50) turned out to be 0.002 nM in experiment [1] (setting [5]) and 0.003 nM in experiment [2] (setting [6]).

In the case of `CCCCCCCCCCCCCCCCC(CC(=O)NCCC(=O)NCCCC[C@H](NC(=O)[C@H](CO)NC(=O)[C@@H]1CCCN1C(=O)[C@@H]1CCCN1C(=O)[C@@H]1CCCN1C(=O)[C@H](C)NC(=O)CNC(=O)[C@H](CO)NC(=O)[C@H](CO)NC(=O)[C@@H]1CCCN1C(=O)CNC(=O)CNC(=O)[C@H](C)NC(=O)[C@H](CC(C)C)NC(=O)[C@H](CC(C)C)NC(=O)[C@H](Cc1c[nH]c2ccccc12)NC(=O)[C@H](CC(N)=O)NC(=O)[C@@H](NC(=O)[C@H](Cc1ccccc1)NC(=O)[C@H](CCC(=O)O)NC(=O)C(C)(C)NC(=O)[C@H](C)NC(=O)[C@H](C)NC(=O)[C@H](CCC(N)=O)NC(=O)[C@H](CCCCN)NC(=O)[C@H](CC(=O)O)NC(=O)[C@H](CC(C)C)NC(=O)[C@H](Cc1ccc(O)cc1)NC(=O)[C@@H](NC(=O)[C@H](CO)NC(=O)[C@H](Cc1ccc(O)cc1)NC(=O)[C@H](CC(=O)O)NC(=O)[C@H](CO)NC(=O)[C@@H](NC(=O)[C@H](Cc1ccccc1)NC(=O)[C@@H](NC(=O)CNC(=O)[C@H](CCC(=O)O)NC(=O)C(C)(C)NC(=O)[C@@H](N)Cc1ccc(O)cc1)[C@@H](C)O)[C@@H](C)O)[C@@H](C)CC)C(C)C)C(=O)NCC(N)=O)C(=O)O` (some centres unmarked) [SEQ ID NO: 141], the EC50 is 0.001 nM in experiment [1] (setting [5]) and 0.002 nM in experiment [2] (setting [6]).
